Marks after values point to notes of the source that are not given here. No end group written: not given here.
Key:
T lymphocyte [1] = assay: T lymphocyte transformation test (ConA, MTT) on spleen cells of treated mice; format: in vivo, BALB/c mice; design: key: OD of assay wells divided by OD of control wells; details: peptide 500 μg/kg/day i.p. 15 days; IFN-γ and IL-2 groups 3×10^5 IU/kg/day; X ± SD
Experimental: (§1) The above substances were all dissolved in 0.5 ml saline and injected intraperitoneal (i.p.) for 15 continuous days, once per day.
(§2) Ten mice per group. The day after the last test substance administration, the mice were sacrificed by cervical dislocation. The spleen was isolated aseptically and manually dispersed in cold D-Hank's solution using an injection needle. The dispersed cell suspension was further sieved through a 100 gauge 150 μm diameter stainless steel sieve. After centrifugation at 200 g for 10 minutes, the supernatant was discarded. The cell pellet was re-suspended in 10 volume of Tris-NH4Cl buffer and then kept standing still for 10 minutes at room temperature. The suspended cells were collected by centrifugation at 150 g for 10 minutes. The cells were washed 2-4 times with cold D-Hank's solution by re-suspending and collecting by centrifugation with condition as described above. The washed cells were then diluted to the desired cell densities by RPMI-1640 culture medium, containing 10% fetal bovine serum.
(§3) Spleen cells of density 1×10^6/ml were placed onto a 96 wells cell culture plate, 100 μl/well, three parallel wells each of the assay sample and control sample per mouse. To the assay wells, 100 μl/well ConA of 100 μg/ml in RPMI-1640 was added, and 100 μl/well plain RPMI-1640 was used for the controls. The cells were incubated for 66 hrs at 37° C., 5% CO2. The cells were then pelleted by centrifugation at 150 g for 10 minutes.
50 μl/well MTT of 1 mg/ml in RPMI-1640 was added to the cell pellet and the cells re-suspended by shaking for 2 minutes. The incubation was continued for 4 hours. The supernatant was discarded after centrifugation at 150 g for 10 minutes. 120 μl 40 mM HCl-2-propanol was added to the cell pellet and shaken for 3 minutes. to obtain OD570nm of each well referenced at 630 nm. An ELISA reader was used
Each mouse formed three assay wells and three control wells. The Stimulation Index (SI) of each mouse was obtained by first deriving the average OD of the three parallel wells, then dividing the value of the assay wells by the control wells.

NK cell = NK cell cytotoxicity activity test (YAC-1 target cells, MTT) on spleen cells of treated mice; format: in vivo, BALB/c mice; details: IFN-γ and IL-2 groups 3×10^5 IU/kg/day, X ± SD
Experimental: as §1, §2
Mice spleen cells were prepared to 4×10^6/ml as described in section 1.1 above. Target cells YAC-1 were brought to log phase and adjusted to 1×10^5/ml. Using a 96 wells cell culture plate, 100 μl mouse spleen cells and 100 μl culture medium were added to the control well containing only the spleen cells; 100 μl target cells and 100 μl culture medium were added to the control well containing only target cells; 100 μl mouse spleen cells and 100 μl target cells were added to the NK activity assay well. Three parallel sets of the above were prepared per mouse.
Samples were centrifuged at 150 g for 10 minutes to collect the cells. The supernatant was discarded and 50 μl/well MTT of 1 mg/ml was added. The reaction mixture was then shaken for 2 minutes, and incubated at 37° C., 5% CO2 for 4 hours. The supernatant was discarded after centrifugation at 150 g for 10 minutes. 120 μl 40 mM HCl-2-propanol was added and shaken for 3 minutes. An ELISA reader was used to obtain OD570nm of each well referenced at 630 nm.

T lymphocyte [2] = assay: T lymphocyte IL-2 secretion test (HT-2 cell bioassay of ConA supernatant); format: in vivo, BALB/c mice; details: IFN-γ and IL-2 groups 3×10^5 IU/kg/day, X ± SD
Experimental: as §1, §3
HT-2 cells at log phase were collected by centrifugation at 150 g for 10 minutes, and washed three times with cold Hank's solution by re-suspension and centrifugation. The collected HT-2 cells were re-suspended in RPMI-1640 and incubated at 37° C., 5% CO2 for 30 minutes. The cells were further washed twice with RPMI-1640 by re-suspension and centrifugation, and re-suspended to final concentration of 2×10^5/ml with RPMI-1640.
rIL-2 was diluted to the following concentration with RPMI-1640: 500 IU/ml, 250 IU/ml, 125 IU/ml, 62.5 IU/ml, 31.25 IU/ml, and […].
A 96 well cell culture plate was set up with three parallel wells per combination:
Negative control: 100 μl RPMI-1640+100 μl HT-2 cell suspension
rIL-2 standard: 100 μl rIL-2 solution+100 μl HT-2 cell suspension
Assay well: 100 μl diluted supernatant+100 μl HT-2 cell suspension
The plate was incubated at 37° C., 5% CO2 for 68 hours, then centrifuged at 150 g for 15 minutes and the supernatant removed. 100 μl 0.5 mg/ml MTT in RPMI-1640 without phenolsulfonphthalein was added into each well. After shaking for 3-4 minutes to re-suspend the cells, continue to incubate for another 4 hours. Samples were then centrifuged at 150 g for 15 minutes and the supernatant was removed. To each well, 120 μl 40 mM HCl-2-propanol was added, mixed for 3-4 minutes and OD analyzed at 570 nm, referenced at 630 nm with an ELISA plate reader.
The average OD of the three parallel wells of each dilution was taken and plotted against concentration on a semi-log paper, concentration on the X-axis. The concentration at 50% OD saturation was obtained for both the testing supernatant and rIL-2.

T lymphocyte [3] = test system: T lymphocyte; design: species or system BALB/c mice; details: mouse, in vivo, ip
anti-SRBC antibody = assay: Sheep Red Blood Cell (SRBC) hemolysis test, anti-SRBC antibody formation; format: in vivo, BALB/c mice; details: SRBC on day 12, IFN-γ and IL-2 groups 3×10^5 IU/kg/day, X ± SD
Experimental: Sheep red blood cells (SRBC) were prepared by collecting blood from cervical vein and put into a sterile flask with glass beads. The flask was shaken for 3 minutes and the blood then mixed with Alsever solution (glucose 2.05 g, NaCl 0.4 g, […] 0.8 g, adjust to 100 ml with distilled water) and stored at 4° C. Immediately before use, samples were centrifuged at 130 g, 5 minutes to collect the SRBC. The cells were washed two times by re-suspension and centrifugation in normal saline. Then the cell pellet was collected by centrifugation at 180 g for 10 minutes and re-suspended in saline to make the final working SRBC suspension, 2% (v/v).
Complement was prepared by adding 10 volumes of fresh Cavy serum into one volume centrifuge packed SRBC, and then gently shaking for 30 minutes at 4° C. The SRBC was removed by centrifugation at 200 g for 10 minutes. 10 volumes of normal saline were added to obtain the working complement solution.
The test substances were administered as described in section 1.1, plus intraperitoneal injection 0.2 ml SRBC per mouse on day 12. On the day after the last test substance administration (day 16), blood was collected from the eye canthus and left at room temperature for one hour for serum exudation. After centrifugation at 200 g for 10 minutes, the serum was diluted by 500 times with normal saline.
To 1 ml diluted mouse serum of each mouse, 0.5 ml SRBC suspension was added. Ice cold. Then 1 ml working complement solution was added and incubated at 37° C. water bath for 10 minutes. Reactions were terminated by ice cold. Samples were then centrifuged at 200 g for 10 minutes to obtain the supernatant.
To 1 ml of this supernatant, 3 ml Drabkin solution was added and left at room temperature for 10 minutes. OD540nm was obtained.
Reference OD540nm was obtained by mixing 0.25 ml SRBC suspension with Drabkin solution to 4 ml and placed at room temperature for 10 minutes before OD540nm was taken. Sample serum index=(OD540nm of test sample[…]reference OD540nm)×500 3. The Effect of Peptides on the Phagocytosis Function of Mononuclear Phagocyte and the Weight of Immune Organ^[8,9].

[4] = immunity organ weight test (thymus gland index, spleen index); format: in vivo, BALB/c mice; details: X ± SD
Experimental: as §1
(§4) One day after the last test substance administration (day 16), the liver, spleen, and thymus gland were separated and blotted dry with filter paper and weighed. The phagocytosis index α was calculated as below: α=(^3√K)(W÷WLS) key: W: body weight WLS: weight of liver plus spleen Thymus gland index(%)=(thymus weight/body weight)×100% Spleen index(%)=(spleen weight/body weight)×100%

mononuclear phagocyte = assay: carbon particle clearance test, phagocytotic activity of mononuclear phagocyte; format: in vivo, BALB/c mice; design: key: α = (cube root of K)×(body weight ÷ liver+spleen weight); details: IFN-γ and IL-2 groups 3×10^5 IU/kg/day, X ± SD
Experimental: On the next day after the last test substance administration (day 16), the mice were injected with […] body weight India ink (5 times dilution with normal saline) from the tail vein.
One minute and five minutes after Indian ink injection, 20 μl blood was obtained from the eye can thus with a heparinized tubing. The blood was mixed with 2 ml 0.1% w/v Na2CO3 and then OD680nm obtained. The outline clear index K was calculated by the following formula: K=(lgA1−lgA2)÷(t2−t1) Key: A1: OD680nm at first minute A2: OD680nm at fifth minute t2: 5 minutes […]
as §4

[5] = peptide 0.5 μg/kg/day i.p. 15 days
[6] = peptide 5 μg/kg/day i.p. 15 days
[7] = peptide 50 μg/kg/day i.p. 15 days
[8] = peptide 500 μg/kg/day i.p. 15 days
[9] = peptide 0.5 μg/kg/day i.p. 15 days, IFN-γ and IL-2 groups 3×10^5 IU/kg/day
[10] = peptide 5 μg/kg/day i.p. 15 days, IFN-γ and IL-2 groups 3×10^5 IU/kg/day
[11] = peptide 50 μg/kg/day i.p. 15 days, IFN-γ and IL-2 groups 3×10^5 IU/kg/day
[12] = peptide 500 μg/kg/day i.p. 15 days, IFN-γ and IL-2 groups 3×10^5 IU/kg/day

Substance	stimulation index (T lymphocyte transformation) (T lymphocyte [1])	NK cell cytotoxic activity (NK cell activity index) (NK cell; [5])	NK cell cytotoxic activity (NK cell activity index) (NK cell; [6])	NK cell cytotoxic activity (NK cell activity index) (NK cell; [7])	activity of T lymphocyte in secreting IL-2 (T lymphocyte [2]; [5])	activity of T lymphocyte in secreting IL-2 (T lymphocyte [2]; [6])	activity of T lymphocyte in secreting IFN (T lymphocyte [3])	anti-SRBC antibody formation (sample serum index) (anti-SRBC antibody; [6])	anti-SRBC antibody formation (sample serum index) (anti-SRBC antibody; [7])	anti-SRBC antibody formation (sample serum index) (anti-SRBC antibody; [8])	weight of thymus gland (thymus gland index) [4, 9]	weight of thymus gland (thymus gland index) [4, 10]	weight of thymus gland (thymus gland index) [4, 11]	NK cell cytotoxic activity (NK cell activity index) (NK cell; [8])	anti-SRBC antibody formation (sample serum index) (anti-SRBC antibody; [5])	phagocytotic index (mononuclear phagocyte; [6])	weight of spleen (spleen index) [4, 8]	weight of thymus gland (thymus gland index) [4, 12]	phagocytotic index (mononuclear phagocyte; [8])	weight of spleen (spleen index) [4, 9]
LGMEACGIHETTY [CMS012]	1.6 ± 0.2	77 ± 6 %	85 ± 7 %	40 ± 9 %	59 ± 13 IU	65 ± 16 IU	86 ± 9 IU	81 ± 22*^@ Unit	50 ± 14* Unit	141 ± 21*^@^ Unit	0.22 ± 0.06*^ %	0.27 ± 0.06*^@^ %	0.26 ± 0.02*^@^ %							
LRVAPEEHPVL [CMS013]							154 ± 15*^@^ IU	93 ± 28*^@ Unit	70 ± 9*^@ Unit	80 ± 16*^@ Unit		0.21 ± 0.05 %		84 ± 9 %	7 ± 1* Unit	6.7 ± 0.2	0.44 ± 0.07 %			
MATAASSSSL [CMS021]	1.6 ± 0.1			88 ± 12*^@^ %			143 ± 17*^@^ IU	82 ± 30*^@ Unit	94 ± 20*^@^ Unit			0.20 ± 0.06 %			57 ± 9*^@ Unit		0.36 ± 0.04 %			
Phe Glu Pro Ser Phe (FEPSF; listed as Sus scrofa) [CMS028]		79 ± 3 %					96 ± 13 IU	121 ± 48*^@^ Unit			0.20 ± 0.06 %	0.28 ± 0.06*^@^ %	0.18 ± 0.04 %	90 ± 5 %	18 ± 5* Unit			0.19 ± 0.02 %		
Tyr Ser Phe (YSF; listed as Sus scrofa) [CMS022]		73 ± 11 %			109 ± 14*^@^ IU		145 ± 13*^@^ IU		110 ± 16*^@^ Unit	68 ± 31* Unit	0.21 ± 0.06 %	0.25 ± 0.04*^@^ %	0.30 ± 0.03*^@^ %					0.26 ± 0.05*^@^ %	7.4 ± 0.6*^@^	
VGMGQKDSYV [CMS020]			91 ± 6 %			63 ± 11 IU		89 ± 24*^@ Unit		155 ± 35*^@^ Unit	0.23 ± 0.05*^@^ %	0.24 ± 0.07*^@^ %	0.27 ± 0.03*^@^ %		10 ± 3* Unit			0.19 ± 0.04 %	6.4 ± 0.6	0.68 ± 0.09*^@^ %

Reference: patent US7718768B2, “Biologically active peptide [sequence]” (CMS Peptides Patent Holding Company Limited, priority 2001, dated 2010)
